Test results reported in US20150105252A1, “SUBSTITUTED PYRAZOLES AS HERBICIDES” (E I DU PONT DE NEMOURS AND COMPANY, priority 2013, published 2015).

How the values were obtained:
[1] = tested on: johnsongrass; experiment: Test E preemergence; type: in vivo, Sorghum halepense; conditions: 21 days, scale 0 to 100
Text: Seeds of plant species selected from bermudagrass (Cynodon dactylon), Surinam grass (Brachiaria decumbens), crabgrass, large (large crabgrass, Digitaria sanguinalis), crabgrass, naked (naked crabgrass, Digitaria nuda), foxtail, green (green foxtail, Setaria viridis), johnsongrass (Sorghum halepense), kochia (Kochia scoparia), morningglory (pitted morningglory, Ipomoea lacunosa), nutsedge, purple (purple nutsedge, Cyperus rotundus), ragweed (common ragweed, Ambrosia elation), mustard, black (black mustard, Brassica nigra), guineagrass (Panicum maximum), dallisgrass (Paspalum dilatatum), barnyardgrass (Echinochloa crus-galli), sandbur (southern sandbur, Cenchrus echinatus), sowthistle (common sowthistle, Sonchus oleraceous), ryegrass, Italian (Italian ryegrass, Lolium multiflorum), signalgrass (broadleaf signalgrass, Brachiaria platyphylla), dayflower, VA (Virginia (VA) dayflower, Commelina virginica), bluegrass (annual bluegrass, Poa annua), quackgrass (Elytrigia repens), mallow (common mallow, Malva sylvestris), buckwheat, wild (wild buckwheat, Polygonum convolvulus), leafy spurge (Euphorbia esula), common chickweed (Stellaria media), wild poinsettia (Euphorbia heterophylla), pigweed, palmer (palmer pigweed, Amaranthus palmeri), and pigweed (redroot pigweed, Amaranthus retroflexus) were planted into a blend of loam soil and sand and treated preemergence with test chemicals formulated in a non-phytotoxic solvent mixture which included a surfactant.
Treated plants and controls were maintained in a greenhouse for 21 days, after which time all species were compared to controls and visually evaluated. Plant response ratings, summarized in Table E, are based on a scale of 0 to 100 where 0 is no effect and 100 is complete control. A dash (-) response means no test result.

[2] = tested on: pigweed, palmer; experiment: Test F postemergence; type: in vivo, Amaranthus palmeri; conditions: scale 0 to 100
Outline: (§1)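 Visual injury was scored from 0 (none) to 100 (complete control) relative to untreated controls after 14–21 days in a greenhouse. Before that, formulated compound (solvent plus surfactant) was sprayed either on silt-loam soil right after sowing or on emerged plants at the 1–4-leaf stage, 2–18 cm tall.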

[3] = tested on: fall panicum; experiment: Test F preemergence; type: in vivo, Panicum dichotomiflorum
Outline: as §1

[4] = tested on: lambsquarters; experiment: Test F preemergence; type: in vivo, Chenopodium album
Outline: as §1

[5] = tested on: foxtail, green; experiment: Test D preemergence; type: in vivo, Setaria viridis; conditions: scale 0 to 100
Outline: (§2)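 Visual injury scored 0–100 (0 none, 100 complete control) against controls 14–21 days after treatment in a controlled growth environment. Chemicals were formulated in a non-phytotoxic solvent mixture containing surfactant, applied to silt loam soil preemergence or to 1- to 4-leaf plants postemergence.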

[6] = tested on: deadnettle; experiment: Test D preemergence; type: in vivo, Lamium amplexicaule; conditions: scale 0 to 100
Outline: as §2

[7] = tested on: common ragweed; experiment: Test F preemergence; type: in vivo, Ambrosia elation
Outline: as §1

[8] = tested on: giant foxtail; experiment: Test F preemergence; type: in vivo, Setaria faberii
Outline: as §1

[9] = Preemergence, 31 g ai/ha, scale 0 to 100
[10] = Preemergence, 62 g ai/ha, scale 0 to 100
[11] = Preemergence, 125 g ai/ha, scale 0 to 100
[12] = preemergence, 8 g ai/ha, scale 0 to 100, 100 is complete control
[13] = preemergence, 16 g ai/ha, scale 0 to 100, 100 is complete control

Question: How did the “Plant response rating, Johnsongrass” value ([1]; 16 g ai/ha) turn out when CCc1cc(C(=O)NCC(F)(F)F)nn1Cc1ccnc(C(F)(F)F)c1 [Compound 78, 5-ethyl-N-(2,2,2-trifluoroethyl)-1-[[(2-trifluoromethyl)-4-pyridinyl]methyl]-1H-pyrazole-3-carboxamide] was run?
Answer: 40

Question: And the “Plant response rating, Johnsongrass” value ([1]; 31 g ai/ha)?
Answer: 80

Question: And the “Plant response rating, Johnsongrass” value ([1]; 62 g ai/ha)?
Answer: 85

Question: What about the “Plant response rating, Johnsongrass” value ([1]; 125 g ai/ha) of the same molecule?
Answer: 100

Question: And the “Plant response rating, Johnsongrass” value ([1]; 250 g ai/ha)?
Answer: 100

Question: What about the “Plant response rating, Pigweed, Palmer” value ([2]; Postemergence, 31 g ai/ha) of the same molecule?
Answer: 50

Question: What about the “Plant response rating, Pigweed, Palmer” value ([2]; Postemergence, 125 g ai/ha) of the same molecule?
Answer: 70

Question: And the “Plant response rating, Pigweed, Palmer” value ([2]; Postemergence, 250 g ai/ha)?
Answer: 90

Question: And the “Plant response rating, Pigweed, Palmer” value ([2]; postemergence, 62 g ai/ha)?
Answer: 60

Question: What about the “Plant response rating, Pigweed, Palmer” value ([2]; postemergence, 500 g ai/ha) of the same molecule?
Answer: 98

Question: What about the “Plant response rating, Fall Panicum” value [3, 9] of the same molecule?
Answer: 90

Question: What about the “Plant response rating, Fall Panicum” value [3, 10] of the same molecule?
Answer: 100

Question: What about the “Plant response rating, Fall Panicum” value [3, 11] of the same molecule?
Answer: 100

Question: What about the “Plant response rating, Fall Panicum” value [3, 12] of the same molecule?
Answer: 40

Question: What about the “Plant response rating, Fall Panicum” value [3, 13] of the same molecule?
Answer: 70

Question: And the “Plant response rating, Lambsquarters” value [4, 9]?
Answer: 100

Question: And the “Plant response rating, Lambsquarters” value [4, 10]?
Answer: 100

Question: What about the “Plant response rating, Lambsquarters” value [4, 11] of the same molecule?
Answer: 100

Question: What about the “Plant response rating, Lambsquarters” value [4, 12] of the same molecule?
Answer: 50

Question: What about the “Plant response rating, Lambsquarters” value [4, 13] of the same molecule?
Answer: 65

Question: What about the “Plant response rating, Foxtail, Green” value ([5]; 31 g ai/ha) of the same molecule?
Answer: 50

Question: What about the “Plant response rating, Foxtail, Green” value ([5]; 62 g ai/ha) of the same molecule?
Answer: 100

Question: And the “Plant response rating, Foxtail, Green” value ([5]; 125 g ai/ha)?
Answer: 100

Question: And the “Plant response rating, Foxtail, Green” value ([5]; 250 g ai/ha)?
Answer: 100

Question: What about the “Plant response rating, Deadnettle” value ([6]; 31 g ai/ha) of the same molecule?
Answer: 10

Question: And the “Plant response rating, Deadnettle” value ([6]; 62 g ai/ha)?
Answer: 10

Question: And the “Plant response rating, Deadnettle” value ([6]; 125 g ai/ha)?
Answer: 25

Question: What about the “Plant response rating, Deadnettle” value ([6]; 250 g ai/ha) of the same molecule?
Answer: 100

Question: What about the “Plant response rating, Common Ragweed” value [7, 9] of the same molecule?
Answer: 90

Question: What about the “Plant response rating, Common Ragweed” value [7, 10] of the same molecule?
Answer: 98

Question: What about the “Plant response rating, Common Ragweed” value [7, 11] of the same molecule?
Answer: 100

Question: What about the “Plant response rating, Common Ragweed” value [7, 12] of the same molecule?
Answer: 0

Question: And the “Plant response rating, Common Ragweed” value [7, 13]?
Answer: 30

Question: What about the “Plant response rating, Giant Foxtail” value [8, 9] of the same molecule?
Answer: 100

Question: And the “Plant response rating, Giant Foxtail” value [8, 10]?
Answer: 100

Question: What about the “Plant response rating, Giant Foxtail” value [8, 11] of the same molecule?
Answer: 100

Question: And the “Plant response rating, Giant Foxtail” value [8, 12]?
Answer: 5

Question: And the “Plant response rating, Giant Foxtail” value [8, 13]?
Answer: 50

Question: CCCc1cc(C(=O)NCC(F)(F)F)nn1Cc1ccnc(C(F)(F)F)c1 [Compound 105] was tested. Which “Plant response rating, Johnsongrass” value ([1]; 16 g ai/ha) did it give?
Answer: 35

Question: What about the “Plant response rating, Johnsongrass” value ([1]; 31 g ai/ha) of the same molecule?
Answer: 80

Question: What about the “Plant response rating, Johnsongrass” value ([1]; 62 g ai/ha) of the same molecule?
Answer: 98

Question: And the “Plant response rating, Johnsongrass” value ([1]; 125 g ai/ha)?
Answer: 98

Question: And the “Plant response rating, Johnsongrass” value ([1]; 250 g ai/ha)?
Answer: 100

Question: And the “Plant response rating, Pigweed, Palmer” value ([2]; Postemergence, 31 g ai/ha)?
Answer: 30

Question: And the “Plant response rating, Pigweed, Palmer” value ([2]; Postemergence, 125 g ai/ha)?
Answer: 60

Question: What about the “Plant response rating, Pigweed, Palmer” value ([2]; Postemergence, 250 g ai/ha) of the same molecule?
Answer: 75

Question: And the “Plant response rating, Pigweed, Palmer” value ([2]; postemergence, 62 g ai/ha)?
Answer: 25

Question: And the “Plant response rating, Pigweed, Palmer” value ([2]; postemergence, 500 g ai/ha)?
Answer: 80

Question: What about the “Plant response rating, Fall Panicum” value [3, 9] of the same molecule?
Answer: 100

Question: What about the “Plant response rating, Fall Panicum” value [3, 10] of the same molecule?
Answer: 100

Question: What about the “Plant response rating, Fall Panicum” value [3, 11] of the same molecule?
Answer: 100

Question: And the “Plant response rating, Fall Panicum” value [3, 12]?
Answer: 75

Question: What about the “Plant response rating, Fall Panicum” value [3, 13] of the same molecule?
Answer: 80

Question: What about the “Plant response rating, Lambsquarters” value [4, 9] of the same molecule?
Answer: 100

Question: And the “Plant response rating, Lambsquarters” value [4, 10]?
Answer: 100

Question: And the “Plant response rating, Lambsquarters” value [4, 11]?
Answer: 100

Question: What about the “Plant response rating, Lambsquarters” value [4, 12] of the same molecule?
Answer: 35

Question: What about the “Plant response rating, Lambsquarters” value [4, 13] of the same molecule?
Answer: 35

Question: What about the “Plant response rating, Foxtail, Green” value ([5]; 31 g ai/ha) of the same molecule?
Answer: 45

Question: What about the “Plant response rating, Foxtail, Green” value ([5]; 62 g ai/ha) of the same molecule?
Answer: 100

Question: And the “Plant response rating, Foxtail, Green” value ([5]; 125 g ai/ha)?
Answer: 100

Question: And the “Plant response rating, Foxtail, Green” value ([5]; 250 g ai/ha)?
Answer: 100

Question: And the “Plant response rating, Deadnettle” value ([6]; 31 g ai/ha)?
Answer: 5

Question: What about the “Plant response rating, Deadnettle” value ([6]; 125 g ai/ha) of the same molecule?
Answer: 20

Question: And the “Plant response rating, Deadnettle” value ([6]; 250 g ai/ha)?
Answer: 35

Question: What about the “Plant response rating, Common Ragweed” value [7, 10] of the same molecule?
Answer: 35

Question: What about the “Plant response rating, Common Ragweed” value [7, 11] of the same molecule?
Answer: 100

Question: What about the “Plant response rating, Common Ragweed” value [7, 12] of the same molecule?
Answer: 0

Question: And the “Plant response rating, Common Ragweed” value [7, 13]?
Answer: 0

Question: And the “Plant response rating, Giant Foxtail” value [8, 9]?
Answer: 100

Question: What about the “Plant response rating, Giant Foxtail” value [8, 10] of the same molecule?
Answer: 100

Question: What about the “Plant response rating, Giant Foxtail” value [8, 11] of the same molecule?
Answer: 100

Question: What about the “Plant response rating, Giant Foxtail” value [8, 12] of the same molecule?
Answer: 10

Question: What about the “Plant response rating, Giant Foxtail” value [8, 13] of the same molecule?
Answer: 65
